Patent publication US20250114338A1, “TETRAHYDRO-PYRIDO[3,4-b]INDOLE ESTROGEN RECEPTOR MODULATORS AND USES THEREOF” (Genentech, Inc., priority 2014, published 2025)

tested on: ER-alpha MCF7; experiment: ER-alpha MCF7 HCS EC50; stated as measured by in vitro cell proliferation assays of Examples 902 and 903; type: cell-based; settings: Homo sapiens, MCF7, MCF7 cells; Table 2
Method in brief: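 MCF7 cells seeded 1000-2000 cells/well for 16 h, then treated with nine-point 1:2 DMSO dilution series in quadruplicate at 37 °C, 5% CO2 for 4 days. Viable cells quantified by CellTiter-Glo ATP luminescence; EC50 calculated. Controls: fulvestrant at final 100 nM, DMSO 0.2% v/v.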

Row | EC50 [nM] | SMILES
1 | 0.203 | C[C@@H]1Cc2c([nH]c3ccc(F)cc23)[C@@H](c2c(F)cc(OC3CN(CCCF)C3)cc2F)N1C[C@@](C)(F)CO [Example 370, 3-((1R,3R)-1-(2,6-difluoro-4-((1-(3-fluoropropyl)azetidin-3-yl)oxy)phenyl)-6-fluoro-3-methyl-1,3,4,9-tetrahydro-2H-pyrido[3,4-b]indol-2-yl)-2-fluoro-2-methylpropan-1-ol]
2 | 9 | C[C@H]1Cc2c([nH]c3ccc(F)cc23)[C@H](c2c(F)cc(OC3CN(CCCF)C3)cc2F)N1C[C@](C)(F)CO [Example 371, 3-((1S,3S)-1-(2,6-difluoro-4-((1-(3-fluoropropyl)azetidin-3-yl)oxy)phenyl)-6-fluoro-3-methyl-1,3,4,9-tetrahydro-2H-pyrido[3,4-b]indol-2-yl)-2-fluoro-2-methylpropan-1-ol]
3 | 0.198 | C[C@@H]1Cc2c([nH]c3ccc(F)cc23)[C@@H](c2c(F)cc(NC3CN(CCCF)C3)cc2F)N1CC(F)(F)F [Example 372, N-(3,5-difluoro-4-((1R,3R)-6-fluoro-3-methyl-2-(2,2,2-trifluoroethyl)-2,3,4,9-tetrahydro-1H-pyrido[3,4-b]indol-1-yl)phenyl)-1-(3-fluoropropyl)azetidin-3-amine]
4 | 18 | C[C@H]1Cc2c([nH]c3ccc(F)cc23)[C@H](c2c(F)cc(NC3CN(CCCF)C3)cc2F)N1CC(F)(F)F [Example 373, N-(3,5-difluoro-4-((1S,3S)-6-fluoro-3-methyl-2-(2,2,2-trifluoroethyl)-2,3,4,9-tetrahydro-1H-pyrido[3,4-b]indol-1-yl)phenyl)-1-(3-fluoropropyl)azetidin-3-amine]
5 | 1.55 | C[C@@H]1Cc2c([nH]c3ccccc23)[C@@H](c2c(F)cc(OCCN3CC(CF)C3)cc2F)N1CC(C)(C)C(=O)O [Example 374, 3-((1R,3R)-1-(2,6-difluoro-4-(2-(3-(fluoromethyl)azetidin-1-yl)ethoxy)phenyl)-3-methyl-1,3,4,9-tetrahydro-2H-pyrido[3,4-b]indol-2-yl)-2,2-dimethylpropanoic acid]
6 | 0.764 | C[C@@H]1Cc2c([nH]c3ccccc23)[C@@H](c2c(F)cc(OC3CN(CCCF)C3)cc2F)N1C[C@H](CO)C(F)(F)F [Example 375, (R)-2-(((1R,3R)-1-(2,6-difluoro-4-((1-(3-fluoropropyl)azetidin-3-yl)oxy)phenyl)-3-methyl-1,3,4,9-tetrahydro-2H-pyrido[3,4-b]indol-2-yl)methyl)-3,3,3-trifluoropropan-1-ol]
7 | 1 | C[C@@H]1Cc2c([nH]c3ccccc23)[C@@H](c2c(F)cc(OC3CN(CCCF)C3)cc2F)N1C[C@@H](CO)C(F)(F)F [Example 376, (S)-2-(((1R,3R)-1-(2,6-difluoro-4-((1-(3-fluoropropyl)azetidin-3-yl)oxy)phenyl)-3-methyl-1,3,4,9-tetrahydro-2H-pyrido[3,4-b]indol-2-yl)methyl)-3,3,3-trifluoropropan-1-ol]
8 | 0.5 | C[C@@H]1Cc2c([nH]c3ccccc23)[C@@H](c2cnc(OC3CN(CCCF)C3)nc2)N1CC(C)(C)F [Example 377, (1R,3R)-2-(2-fluoro-2-methylpropyl)-1-(2-((1-(3-fluoropropyl)azetidin-3-yl)oxy)pyrimidin-5-yl)-3-methyl-2,3,4,9-tetrahydro-1H-pyrido[3,4-b]indole]
9 | 28 | C[C@@H]1Cc2c([nH]c3ccccc23)[C@H](c2c(F)cc(OCCN3CC(CF)C3)cc2F)N1CC(C)(C)C(=O)O [Example 378, 3-[(1S,3R)-1-[2,6-difluoro-4-[2-[3-(fluoromethyl)azetidin-1-yl]ethoxy]phenyl]-3-methyl-1,3,4,9-tetrahydropyrido[3,4-b]indol-2-yl]-2,2-dimethyl-propanoic acid]
10 | 0.28 | C[C@@H]1Cc2c([nH]c3ccccc23)[C@@H](c2c(F)cc(OCCN3CC(CF)C3)cc2F)N1CC(C)(F)F [Example 379, (1R,3R)-1-(2,6-difluoro-4-(2-(3-(fluoromethyl)azetidin-1-yl)ethoxy)phenyl)-2-(2,2-difluoropropyl)-3-methyl-2,3,4,9-tetrahydro-1H-pyrido[3,4-b]indole]
11 | 0.188 | C[C@@H]1Cc2c([nH]c3ccccc23)[C@@H](c2ccc([C@@H](O)C3CN(CCCF)C3)cc2)N1CC(C)(C)F [Example 380, (S)-(4-((1R,3R)-2-(2-fluoro-2-methylpropyl)-3-methyl-2,3,4,9-tetrahydro-1H-pyrido[3,4-b]indol-1-yl)phenyl)(1-(3-fluoropropyl)azetidin-3-yl)methanol]
12 | 0.605 | C[C@@H]1Cc2c([nH]c3ccccc23)[C@@H](c2ccc([C@H](O)C3CN(CCCF)C3)cc2)N1CC(C)(C)F [Example 381, (R)-(4-((1R,3R)-2-(2-fluoro-2-methylpropyl)-3-methyl-2,3,4,9-tetrahydro-1H-pyrido [3,4-b]indol-1-yl)phenyl)(1-(3-fluoropropyl)azetidin-3-yl)methanol]
13 | 1.01 | C[C@@H]1Cc2c([nH]c3ccccc23)[C@@H](c2c(F)cc(NC3CN(CCCF)C3)cc2F)N1CC(C)(C)C(=O)O [Example 382, 3-((1R,3R)-1-(2,6-difluoro-4-((1-(3-fluoropropyl)azetidin-3-yl)amino)phenyl)-3-methyl-1,3,4,9-tetrahydro-2H-pyrido[3,4-b]indol-2-yl)-2,2-dimethylpropanoic acid]
14 | 0.28 | C[C@@H]1Cc2c([nH]c3ccc(F)cc23)[C@@H](c2c(F)cc(OCCN3CC(CF)C3)cc2F)N1CC(F)F [Example 383, (1R,3R)-1-(2,6-difluoro-4-(2-(3-(fluoromethyl)azetidin-1-yl)ethoxy)phenyl)-2-(2,2-difluoroethyl)-6-fluoro-3-methyl-2,3,4,9-tetrahydro-1H-pyrido[3,4-b]indole]
15 | 29 | C[C@H]1Cc2c([nH]c3ccc(F)cc23)[C@H](c2c(F)cc(OCCN3CC(CF)C3)cc2F)N1CC(F)F [Example 384, (1S,3S)-1-(2,6-difluoro-4-(2-(3-(fluoromethyl)azetidin-1-yl)ethoxy)phenyl)-2-(2,2-difluoroethyl)-6-fluoro-3-methyl-2,3,4,9-tetrahydro-1H-pyrido[3,4-b]indole]
16 | 0.074 | C[C@@H]1Cc2c([nH]c3ccc(F)cc23)[C@@H](c2c(F)cc(OC3CN(CCCF)C3)cc2F)N1CC(F)F [Example 385, (1R,3R)-1-(2,6-difluoro-4-((1-(3-fluoropropyl)azetidin-3-yl)oxy)phenyl)-2-(2,2-difluoroethyl)-6-fluoro-3-methyl-2,3,4,9-tetrahydro-1H-pyrido[3,4-b]indole]
17 | 23 | C[C@H]1Cc2c([nH]c3ccc(F)cc23)[C@H](c2c(F)cc(OC3CN(CCCF)C3)cc2F)N1CC(F)F [Example 386, (1S,3S)-1-(2,6-difluoro-4-((1-(3-fluoropropyl)azetidin-3-yl)oxy)phenyl)-2-(2,2-difluoroethyl)-6-fluoro-3-methyl-2,3,4,9-tetrahydro-1H-pyrido[3,4-b]indole]
18 | 0.149 | C[C@@H]1Cc2c([nH]c3ccc(F)cc23)[C@@H](c2c(F)cc(NC3CN(CCCF)C3)cc2F)N1S(C)(=O)=O [Example 387, N-(3,5-difluoro-4-((1R,3R)-6-fluoro-3-methyl-2-(methylsulfonyl)-2,3,4,9-tetrahydro-1H-pyrido[3,4-b]indol-1-yl)phenyl)-1-(3-fluoropropyl)azetidin-3-amine]
